Data on three compounds can be found in US9205098B2, “Anti-cancer therapies” (Threshold Pharmaceuticals, Inc., priority 2004, dated 2015).

In assay [1] the test system is advanced pancreatic cancer. The following applies: patients with advanced pancreatic cancer; cited from earlier work.
Assay [2] has as its system pancreatic cancer cell lines. The following applies: in vitro; cited from earlier work.
In assay [3] the test system is tumors derived from As-PC-1 human pancreatic cancer cells. The assay can be described thus: As-PC-1 human pancreatic cancer tumor model in mice. It counts as in vivo, female NMRI nu/nu mice. The following applies: glufosfamide i.v., gemcitabine i.p., alone or in combination, once daily for 7 days. The procedure:
(§1) A combination of glufosfamide and gemcitabine was administered daily for 7 days to female NMRI nu/nu mice that were carrying tumors derived from HS766-T or As-PC-1 human pancreatic cancer cells. Mice were administered doses of vehicle control (0.9% sodium chloride solution, i.v.), gemcitabine (i.p.), glufosfamide (i.v.) or gemcitabine/glufosfamide combinations once daily for 7 consecutive days. A dose of 1.25 mg/kg was used as the standard dose for gemcitabine throughout the study.

For assay [4], the system named is tumors derived from HS766-T human pancreatic cancer cells. The assay can be described thus: HS766-T human pancreatic cancer tumor model in mice. It counts as in vivo, female NMRI nu/nu mice. The protocol:
as §1

Assay [5] relates to tumors derived from type MiPaca2 human pancreatic cancer cells. Briefly: MiPaca2 human pancreatic cancer tumor model in nude mice. It counts as in vivo. The protocol:
A combination of glufosfamide and gemcitabine was administered to nude mice that were carrying tumors derived from type MiPaca2 human pancreatic cancer cells. Mice were administered doses of vehicle control, gemcitabine, glufosfamide, or gemcitabine/glufosfamide combinations as tabulated in Table 1 below (10 mice/group). Glufosfamide was administered i.v., daily for 14 days (Groups 1-4 and 7-12). Gemcitabine was administered at 300 mg/kg, i.p., once a week for three weeks (Groups 6 and 10-12). Gemcitabine was administered at 150 mg/kg, i.p., twice a week for three weeks (Groups 5 and 7-9).

For the compound `Nc1nc2[nH]cc(CCc3ccc(C(=O)N[C@@H](CCC(=O)O)C(=O)O)cc3)c2c(=O)[nH]1` [pemetrexed], the activity in patients result in assay [1] is “has shown activity”. The “activity against pancreatic cancer cell lines” value in assay [2] is recorded as “active”.

Consider `O=P(NCCCl)(NCCCl)O[C@@H]1O[C@H](CO)[C@@H](O)[C@H](O)[C@H]1O` [glufosfamide, β-D-glucosyl-ifosfamide mustard], for which the “inhibitory effect on tumor growth” value in assay [3] is “no apparent inhibitory effect on tumor growth”. In addition, the “onset of tumor growth compared with gemcitabine alone or vehicle control” value in assay [4] (glufosfamide 10 mg/kg i.v. once daily for 7 days) is given as “dramatic delay in the onset of tumor growth”. Moreover, the “reduction in tumor size” value in assay [5] (Group 3: glufosfamide 30 mg/kg i.v. daily for 14 days) and in assay [5] (Group 4: glufosfamide 100 mg/kg i.v. daily for 14 days) was “modest reduction in tumor size” in each case.

Regarding `Nc1ccn([C@@H]2O[C@H](CO)[C@@H](O)C2(F)F)c(=O)n1` [gemcitabine, 2′-deoxy-2′,2′-difluoro-cytidine], the “inhibitory effect on tumor growth” value in assay [3] was “no apparent inhibitory effect on tumor growth”. Besides, in assay [4] (gemcitabine alone 1.25 mg/kg i.p. once daily for 7 days), the “inhibitory effect on tumor progression” value is listed as “only a marginal inhibitory effect”.
